Data on one molecule can be found in patent US20230355598A1, “PYRROLIDINE COMPOUNDS TO TREAT XERODERMA PIGMENTOSUM” (Clinuvel (UK) Ltd., priority 2020, published 2023).

The experiment relates to Melanocytes. Briefly: Measurement of UV-induced apoptosis by Annexin Va staining. Type of experiment: cell-based. Conditions: melanocytes in medium lacking BPE; treated 4 days prior to and 24 h after UV dose 105 mJ/cm^2; vs control.

SMILES strings stand for the structures.

Procedure: Melanocytes were treated with the different concentrations of the pyrrolidine compound for 4 days prior to, and 24 h after exposure to a UV dose (105 mJ/cm^2), then stained for Annexin Va staining. The data were collected as percent increase above control, with triplicate dishes included in each group. Effect of the pyrrolidine compound vs control on the UV-induced apoptosis were determined in melanocyte strains. Floating as well as attached cells were harvested and stained for Annexin V, and analyzed by flow cytometry.

In the case of `COC[C@H]1CN(C(=O)[C@]2(F)CN(C3CCCC3)C[C@H]2c2ccc(OC)cc2)C[C@@H]1c1ccc(C(F)(F)F)cc1N1CCC(C(=O)O)CC1` [Dersimelagon, 1-{2-[(3S,4R)-1-{[(3R,4R)-1-cyclopentyl-3-fluoro-4-(4-methoxyphenyl)pyrrolidin-3-yl]carbonyl}-4-(methoxymethyl)pyrrolidin-3-yl]-5-(trifluoromethyl)phenyl}piperidine-4-carboxylic acid], the “Effect on UV-induced apoptosis (Annexin V staining, flow cytometry)” value is on record as “beneficial anti-apoptotic effects”.
